The source of these data is PMC5748833, “Synthesis and Biological Evaluation of Novel Hybrid Molecules Containing Purine, Coumarin and Isoxazoline or Isoxazole Moieties” (The Open Medicinal Chemistry Journal, 2017).

What is called melting point is the temperature, or range, at which the solid turns liquid. One may read the IC50 as the point on the concentration scale where inhibition reaches its midpoint.

“And” between values parts separate entries of the source, which are not always exact repeats. Equal values may be shown once.

Data set [1] is described as follows: Inhibition of linoleic acid lipid peroxidation (AAPH). The note with it: 100 μM compound, 37°C. How it is done:
2.2.2.3 Inhibition of linoleic acid lipid peroxidation
Production of conjugated diene hydroperoxide by oxidation of linoleic acid sodium salt in an aqueous solution was monitored at 234 nm. 2,2’-Azobis(2-amidinopropane) dihydrochloride (AAPH) was used as a free radical initiator. 10 μl of the 16 mM linoleic acid sodium salt solution was added to the UV cuvette containing 0.93 ml of 0.05 M phosphate buffer, pH 7.4 prethermostated at 37°C. The oxidation reaction was initiated at 37°C under air by the addition of 50 μl of 40 mM AAPH solution. Oxidation was carried out in the presence of 10 μl of the examined compounds (stock solution in DMSO). In the assay without antioxidant, lipid oxidation was measured in the presence of the same level of DMSO. The rate of oxidation at 37°C was monitored by recording the increase in absorption at 234 nm caused by conjugated diene hydroperoxides (Table 5). Trolox was used as a standard.
Anti-lipid peroxidation activity. The water-soluble azo compound AAPH has been extensively used as a clean and controllable source of thermally produced alkyl peroxyl free radicals, through spontaneous thermal decomposition. […] In the AAPH assay, the highly reactive alkylperoxyl radicals are intercepted mainly by a hydrogen atom transfer (HAT) from the antioxidant.

A short description of data set [2]: Reducing activity of the stable radical DPPH. The following applies: 100 μM compound, after 20 min. How it is done: 2.2.2.1 Determination of the reducing activity of the stable radical 1, 1-diphenyl-picrylhydrazyl (DPPH)
To a solution of DPPH (100μM) in absolute ethanol an equal volume of the compounds dissolved in ethanol was added. As control solution ethanol was used. The concentration of the solutions of the compounds was 100μM. After 20 and 60 min at room temperature the absorbance was recorded at 517 nm (Table 5). NDGA was used as a standard.
The compounds were studied for their antioxidant activity by the use of the stable 2,2-diphenyl-1-picrylhydrazyl radical (DPPH) at concentration 0.1mM after 20 min. […] This purple colour generally disappears in the presence of an antioxidant. The reduction of absorbance is a measure of the free DPPH due to the action of the antioxidant. The antioxidant activity was expressed as the RA% (Reducing Activity). […] Within the group of derivatives 4 the presence of the morpholinyl or piperidinyl rings at position A as well as the carbonyl group at position B, hinder the interaction of the compounds to the free stable radical DPPH.

The target of data set [3] is T1, soybean lipoxygenase (Glycine max, UniProt P08170).
T1 construct: purchased Sigma Chemical, Co. (St. Louis, MO, USA)
T1 sequence (P08170 1-839): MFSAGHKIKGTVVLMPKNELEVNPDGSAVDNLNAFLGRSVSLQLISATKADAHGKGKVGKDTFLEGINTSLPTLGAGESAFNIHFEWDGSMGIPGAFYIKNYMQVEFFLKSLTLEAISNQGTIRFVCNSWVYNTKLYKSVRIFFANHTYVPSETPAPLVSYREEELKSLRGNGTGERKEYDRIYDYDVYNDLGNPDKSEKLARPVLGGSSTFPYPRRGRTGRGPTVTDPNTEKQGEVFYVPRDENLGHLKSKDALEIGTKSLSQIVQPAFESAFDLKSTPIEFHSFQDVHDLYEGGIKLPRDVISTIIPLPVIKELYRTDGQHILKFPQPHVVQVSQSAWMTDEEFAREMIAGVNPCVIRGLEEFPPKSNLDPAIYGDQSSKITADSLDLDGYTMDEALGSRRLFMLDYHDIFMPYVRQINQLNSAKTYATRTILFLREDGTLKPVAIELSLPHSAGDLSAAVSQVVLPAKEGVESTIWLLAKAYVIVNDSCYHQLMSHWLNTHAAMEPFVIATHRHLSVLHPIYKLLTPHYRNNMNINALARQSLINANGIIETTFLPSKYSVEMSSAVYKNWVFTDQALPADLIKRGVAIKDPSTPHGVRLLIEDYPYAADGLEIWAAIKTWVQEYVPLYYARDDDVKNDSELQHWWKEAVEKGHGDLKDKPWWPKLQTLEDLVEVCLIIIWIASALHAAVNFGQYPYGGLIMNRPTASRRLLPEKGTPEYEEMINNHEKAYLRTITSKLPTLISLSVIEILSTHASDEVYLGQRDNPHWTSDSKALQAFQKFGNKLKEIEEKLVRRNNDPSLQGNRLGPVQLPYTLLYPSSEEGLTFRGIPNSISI
Kind of data set: Soybean lipoxygenase inhibition in vitro. The format is biochemical. The following applies: for IC50: read-out: LOX IC50 μΜ; for %LOX @ 100μΜ: 100 μM compound; for inhibition at 100 µM: read-out: %LOX @ 100μΜ. The method, then: 2.2.2.4 Soybean lipoxygenase inhibition study in vitro [14]
In vitro study was evaluated as reported previously. The tested compounds dissolved in ethanol were incubated at room temperature with sodium linoleate (0.1 mM) and 0.2 ml of enzyme solution (1/9 x10^-4 w/v in saline). […] Several concentrations were used for the determination of IC50 values (Table 5).
LO is the key enzyme in leukotriene biosynthesis. Leukotrienes derived from the biotransformation of arachidonic acid catalyzed by 5-lipoxygenase (5-LO), are important inflammatory mediators implicated in several diseases. LOs play a role in membrane lipid peroxidation by forming hydroperoxides in the lipid bilayer. […] Most of the LO inhibitors are antioxidants or free radical scavengers, since lipoxygenation occurs via a carbon-centered radical. The evaluation of the novel coumarin hybrids against soybean lipoxygenase LO was accomplished by the UV-based enzyme assay.

Data set [4] in a line: Competition of the tested compounds with DMSO for hydroxyl radicals. The following applies: 100 μM compound, Fe3+/ascorbic acid, 30 min, 37°C. How it is done: 2.2.2.2 Competition of the tested compounds with DMSO for hydroxyl radicals
The hydroxyl radicals generated by the Fe ^3+ /ascorbic acid system, were detected according to Nash, by the determination of formaldehyde produced from the oxidation of DMSO. The reaction mixture contained EDTA (0.1 mM), Fe ^3+ (167 μM), DMSO (33 mM) in phosphate buffer (50 mM, pH 7.4), the tested compounds (concentration 0.1mM) and ascorbic acid (10 mM). After 30 min of incubation (37°C) the reaction was stopped with CCl3COOH (17% w/v) (Table 5). Trolox was used as a standard.
Superoxide (O2^-.) anion and hydroxyl radical (^.OH) are free radical species of potential importance. In the acidic conditions of ischemic brain, O2^-. is probably protonated to give HO2^-. species. Iron released from damaged brain cells is more likely to be readily available to catalyze the generation of OH radicals. Among the ROS, the hydroxyl (^•OH) free radical is possibly the most toxic, as it reacts with a number of biological important molecules. Polyunsaturated fatty acids are found in high concentrations in the CNS, and are particularly vulnerable by free radicals. Thus, we tried to test the ability of our compounds to scavenge hydroxyl radicals. […] All the derivatives of series 13 (except of 13i) present high antioxidant activity (80-100%) which is not able to be correlated with any specific structural characteristic since all contain a coumarin, a purine and an isoxazolyl moiery. […] It seems that the overall molar configuration influences the response. However, antioxidants with hydrophilic or lipophilic character are both needed to act as radical scavengers in the aqueous phase or as chain-breaking antioxidants in biological membranes.

`Cc1cc(=O)oc2ccc(OC(=O)C3CC(Cn4cnc5c(N6CCCC6)ncnc54)=NO3)cc12` (stereo not drawn) showed a melting point of 192 to 193 °C.

Compound `O=c1ccc2ccc(OCC3=NOC(n4cnc5c(N6CCCC6)ncnc54)C3)cc2o1` (stereo not drawn) displayed a melting point of 200 to 202 °C.

In turn, `O=c1cc(OCc2cc(Cn3cnc4c(N5CCCCC5)ncnc43)no2)c2ccccc2o1` [13h] yielded a melting point of 161 to 163 °C. Also, the “LP % @ 100μΜ (inhibition of lipid peroxidation)” value in data set [1] stood at 86%. In addition, the “RA% @ 100μΜ (reducing activity, DPPH)” value in data set [2] is on record as “no”. Besides, in data set [3], the 50% inhibitory concentration (IC50) turned out to be 55 µM.

`O=c1cc(OCC2CC(Cn3cnc4c(N5CCOCC5)ncnc43)=NO2)c2ccccc2o1` (stereo not drawn) [4g] registered a melting point of 158 to 160 °C. Besides, the “LP % @ 100μΜ (inhibition of lipid peroxidation)” value in data set [1] turned out to be 16%. For the same compound, in data set [3], the “%LOX @ 100μΜ” value is recorded as 10% and the inhibition at 100 µM is 10%.

On to `Cc1cc(=O)oc2cc(OCc3cc(Cn4cnc5c(N6CCOCC6)ncnc54)no3)ccc12` [13d], for which the melting point is 179 to 180 °C. In data set [1], the “LP % @ 100μΜ (inhibition of lipid peroxidation)” value is recorded as “no”. Also, the “RA% @ 100μΜ (reducing activity, DPPH)” value in data set [2] is reported as “no”. Also, in data set [3], the “%LOX @ 100μΜ” value is “no”.

As for `Cc1cc(=O)oc2cc(OCC3CC(Cn4cnc5c(N6CCOCC6)ncnc54)=NO3)ccc12` (stereo not drawn) [4d], the melting point was in the range of 194 to 196 °C. The “LP % @ 100μΜ (inhibition of lipid peroxidation)” value in data set [1] is 21%. In addition, in data set [3], the inhibition at 100 µM was found to be 44.5%.

`Cc1cc(=O)oc2cc(OCc3cc(Cn4cnc5c(N6CCCCC6)ncnc54)no3)ccc12` gave a melting point of 165 to 167 °C.

`Cc1cc(=O)oc2cc(OCC3CC(Cn4cnc5c(N6CCCC6)ncnc54)=NO3)ccc12` (stereo not drawn) [4e] yielded a melting point of 190 to 192 °C. Besides, the “LP % @ 100μΜ (inhibition of lipid peroxidation)” value in data set [1] turned out to be 65%. Besides, the “%LOX @ 100μΜ” value in data set [3] is recorded as “no”.

`O=c1ccc2ccc(OCc3cc(Cn4cnc5c(N6CCOCC6)ncnc54)no3)cc2o1` [13f] gave a melting point of 174 to 175 °C. Further, the “LP % @ 100μΜ (inhibition of lipid peroxidation)” value in data set [1] was determined as 23%. Also, the “RA% @ 100μΜ (reducing activity, DPPH)” value in data set [2] is reported as “no”. Moreover, the inhibition at 100 µM in data set [3] was 25%.

`Cc1cc(=O)oc2ccc(OC(=O)C3CC(Cn4cnc5c(N6CCCCC6)ncnc54)=NO3)cc12` (stereo not drawn) [4k, 4-Methyl-2-oxo-2H-chromen-6-yl 3-[(6-piperidin-1-yl-9H-purin-9-yl)methyl]-4,5-Dihydroisoxazole-5-Carboxylate] displayed a melting point of 179 to 181 °C. Also, the “LP % @ 100μΜ (inhibition of lipid peroxidation)” value in data set [1] came out at 57%. For the same compound, in data set [2], the “RA% @ 100μΜ (reducing activity, DPPH)” value is listed as 12%. Further, the IC50 in data set [3] turned out to be 10 µM.

In turn, `O=c1ccc2ccc(OCc3cc(Cn4cnc5c(N6CCCC6)ncnc54)no3)cc2o1` [13g] showed a melting point of 176 to 178 °C. In addition, the “LP % @ 100μΜ (inhibition of lipid peroxidation)” value in data set [1] worked out at 43%. For the same compound, the “RA% @ 100μΜ (reducing activity, DPPH)” value in data set [2] is listed as “no”. Besides, the half-inhibitory concentration (IC50) in data set [3] is 62.5 µM and 62 µM.

Compound `O=c1ccc2ccc(OCc3cc(Cn4cnc5c(N6CCCCC6)ncnc54)on3)cc2o1` [15a, 7-({5-[(6-piperidin-1-yl-9H-purin-9-yl)methyl]isoxazol-3-yl}methoxy)-2H-chromen-2-one] yielded a melting point of 140 to 142 °C. The “RA% @ 100μΜ (reducing activity, DPPH)” value in data set [2] was “no”. Further, in data set [3], the IC50 amounted to 55 µM.

In turn, `Cc1cc(=O)oc2ccc(OC(=O)C3CC(Cn4cnc5c(N6CCOCC6)ncnc54)=NO3)cc12` (stereo not drawn) [4l] registered a melting point of 188 to 189 °C. The “LP % @ 100μΜ (inhibition of lipid peroxidation)” value in data set [1] turned out to be 37.5%. Also, in data set [2], the “RA% @ 100μΜ (reducing activity, DPPH)” value came out at 12%. Also, the half-maximal inhibitory concentration (IC50) in data set [3] was 61 µM.

Compound `Cc1cc(=O)oc2ccc(OCC3CC(Cn4cnc5c(N6CCCCC6)ncnc54)=NO3)cc12` (stereo not drawn) [4a, 4-methyl-6-({3-[(6-piperidin-1-yl-9H-purin-9-yl)methyl]-4,5-dihydroisoxazol-5-yl}methoxy)-2H-chromen-2-one] returned a melting point of 180 to 182 °C. Further, the “LP % @ 100μΜ (inhibition of lipid peroxidation)” value in data set [1] is 63%. Besides, in data set [3], the inhibition at 100 µM came out at 6%.

As to `Cc1cc(=O)oc2ccc(OCC3=NOC(Cn4cnc5c(N6CCCCC6)ncnc54)C3)cc12` (stereo not drawn) [11a, 4-methyl-6-({5-[(6-piperidin-1-yl-9H-purin-9-yl)methyl]-4,5-dihydroisoxazol-3-yl}methoxy)-2H-chromen-2-one], the melting point was in the range of 148 to 150 °C. The “LP % @ 100μΜ (inhibition of lipid peroxidation)” value in data set [1] was 44%. For the same compound, the “%LOX @ 100μΜ” value in data set [3] is listed as “no”.

`Cc1c(C)c2c(c(C)c1O)CCC(C)(C(=O)O)O2` (stereo not drawn) [Trolox, reference compound]: the “LP % @ 100μΜ (inhibition of lipid peroxidation)” value in data set [1] came out at 76%. Moreover, in data set [4], the “∙ΟΗ % @ 100μΜ (hydroxyl radical scavenging, percent inhibition of formaldehyde production)” value came to 83%.

Consider `O=c1ccc2ccc(OCc3cc(Cn4cnc5c(N6CCCC6)ncnc54)on3)cc2o1` [15c], for which the melting point was 172 to 173 °C. Also, the “LP % @ 100μΜ (inhibition of lipid peroxidation)” value in data set [1] stood at 43%. Besides, the “RA% @ 100μΜ (reducing activity, DPPH)” value in data set [2] was “no”. In data set [3], the “%LOX @ 100μΜ” value is reported as 9% and the inhibition at 100 µM came to 9%.

The compound `O=c1ccc2ccc(OCC3=NOC(Cn4cnc5c(N6CCCCC6)ncnc54)C3)cc2o1` (stereo not drawn) [11g] gave a melting point of 184 to 185 °C. For the same compound, in data set [1], the “LP % @ 100μΜ (inhibition of lipid peroxidation)” value is “no”. In addition, the “%LOX @ 100μΜ” value in data set [3] was “no”.

`CC(Cc1ccc(O)c(O)c1)C(C)Cc1ccc(O)c(O)c1` (stereo not drawn) [NDGA, nordihydroguairetic acid, reference compound]: the “RA% @ 100μΜ (reducing activity, DPPH)” value in data set [2] was found to be 87%.
